Among the data in ChEMBL document CHEMBL3414453, “Design and optimization of hybrid of 2,4-diaminopyrimidine and arylthiazole scaffold as anticancer cell proliferation and migration agents” (Eur J Med Chem, 2015) are IC50 values, retold here.

Assay [1] relates to MCF7. The assay can be described thus: Cytotoxicity against human MCF7 cells assessed as growth inhibition after 48 hrs by sulforhodamine B assay. The class given is functional, cell-based. The settings on record: MCF7, 48 h.
In assay [2] the test system is MDA-MB-231. The assay can be described thus: Cytotoxicity against human MDA-MB-231 cells assessed as growth inhibition after 48 hrs by sulforhodamine B assay. It counts as functional, cell-based. As to conditions: MDA-MB-231, 48 h. For orientation: In SRB staining, fixed cells bind dye roughly in proportion to their protein.

A word on the IC50: it is the concentration at which inhibition is half-maximal. Consider `Cc1nc(Nc2ncc(C(=O)Nc3c(C)cccc3Cl)s2)cc(N2CCN(CCO)CC2)n1` [DASATINIB], for which the IC50 in assay [1] worked out at 8.05 µM; in assay [2], 1.12 µM.
